Measured values from patent US6410539B1, “Imidazole derivatives and their use as farnesyl protein transferase inhibitors” (Astrazenca UK Limited, priority 1997, dated 2002).

Columns and labels:
[1] = molecular target: T1, Farnesyl protein transferase (FPT) (Homo sapiens, UniProt P49354+P49356); experiment: In-vitro farnesyl protein transferase assay (farnesylation of Ki-ras with radiolabelled farnesyl pyrophosphate); type: biochemical; conditions: "in the above test"; FPT partially purified from human placenta, substrate Kras (CVIM C-terminal sequence)
T1 construct: partially purified from human placenta by ammonium sulphate fractionation; from tissue; host or cells: human placenta
Procedure: The following stock solutions were used and the assays were conducted in 96 well plates: TRIS Buffer (500 mM TRIS, 50 mM MgCl2.6H2O, pH=8.0); Farnesyl pyrophosphate (6.4 mg/ml); Aprotinin (1.9 mg/ml); Ki-ras (0.5 mg/ml, stored at −80° C.); Acid ethanol (850 ml absolute ethanol+150 ml concentrated HCl).
Farnesyl protein transferase (FPT) was partially purified from human placenta by ammonium sulphate fractionation followed by a single Q-Sepharose™ (Pharmacia, Inc) anion exchange chromatography essentially as described by Ray and Lopez-Belmonte (Ray K P and Lopez-Belmonte J (1992) Biochemical Society Transactions 20 494-497). The substrate for FPT was Kras (CVIM C-terminal sequence). The cDNA for oncogenic val12 variant of human c-Ki-ras-2 4B was obtained from the plasmid pSW11-1 (ATCC). This was then subcloned into the polylinker of a suitable expression vector e.g. pIC147. The Kras was obtained after expression in the E. coli strain, BL21. […]
Assays were performed in 96 well plates as follows: 10 μl of test compound solution was added to each well. […] Precipitated protein was then collected onto glass fibre filter mats (B) using a Tomtec™ cell harvester and tritiated label was measured in a Wallac™1204 Betaplate scintillation counter. […]

melting point | IC50 [1] | Compound
94 to 98 °C | – | COC(=O)[C@H](CCSC)NC(=O)c1ccc(NC(Cn2ccnc2)c2ccc(F)cc2)cc1-c1ccc(F)cc1 (stereo partly drawn) [Example 2, Methyl (2S)-2-{2-(4-fluorophenyl)-4-[1-(4-fluorophenyl)-2-(imidazol-1-yl)ethylamino]benzoylamino}-4methylsulfanylbutyrate]
– | ~2 nM | CSCCC(NC(=O)c1ccc(NC(Cn2ccnc2)c2ccc(F)cc2)cc1-c1ccccc1)C(=O)O [Example 6, (2S)-2-{2-Phenyl-4-[1-(4-fluorophenyl-2-imidazol-1-yl)ethylamino]benzoylamino}-4-methylsulfanylbutyric acid]
115 to 120 °C | – | CSCC[C@H](NC(=O)c1cc(NC(Cn2ccnc2)c2ccc(F)cc2)ccc1CCc1ccc(F)cc1)C(=O)O (stereo partly drawn) [Example 8, (2S)-2-{5-[1-(4-Fluorophenyl)-2-(imidazol-1-yl)ethylamino]-2-(4-fluorophenethyl)benzoylamino}-4-methylsulfanylbutyric acid]
130 to 135 °C | – | CSCC[C@H](NC(=O)c1cc(NC(Cn2ccnc2)c2ccc(F)cc2)ccc1Cc1ccc(F)cc1)C(=O)O (stereo partly drawn) [Example 10, (2S)-2-{5-[1(4-Fluorophenyl)-2-(imidazol-1-yl)ethylamino]-2-(4-fluorobenzyl)benzoylamino}-4-methylsulfanylbutyric acid]
